Values joined by “and” are separate entries in the source; they are usually repeats but may differ in a detail not shown here. Equal values may be shown once. “Also recorded” adds a separate entry of the source. Read-outs that look alike come from different tables or passages of the source.
What was measured:
[1] = Drug interaction study: whole blood pharmacokinetics of temsirolimus and sirolimus after single 5-mg i.v. temsirolimus alone or with oral ketoconazole; type: in vivo, human; conditions: for Intersubject variability, CV for Cmax and AUC: both treatment periods; for Cmax / AUC / AUC(0-t) / Vd / half-life / Tmax / clearance: human; for Cmax / AUC / AUC(0-t) / Vd / half-life / Tmax / T1/2 / clearance / CL / Vss: whole blood
Description: (§1) In this open-label, non-randomised, single-centre, two-period, sequential study, subjects received temsirolimus (Torisel™; Wyeth Pharmaceuticals, Philadelphia, PA, USA) alone, followed by temsirolimus in combination with ketoconazole after a 14-day washout period. On study day 1 of the first period, subjects received 25 mg i.v. diphenhydramine, followed 30 min later by 5 mg i.v. temsirolimus over 30 min. Subjects remained in the clinical unit until the 72-h blood collection (study day 4) and returned for subsequent blood draws at designated time points over the next 4 days (study days 5–8). Study days 9 through 13 were part of the washout period. During the second period, subjects returned to the clinical unit on study day 14. On study day 15, they received 400 mg oral ketoconazole, followed 90 min later by a 25-mg i.v. dose of diphenhydramine. Thirty minutes later, subjects were administered a 30-min i.v. infusion of 5 mg temsirolimus. Subjects remained in the clinical unit until the 72-h blood draw (study day 18) and returned for all subsequent blood draws. They continued to take 400 mg ketoconazole orally each day through study day 21. Subjects fasted for 10 h before receiving temsirolimus and for 4 h afterward.
Blood samples were collected predose, immediately before the end of the infusion (0.5 h), and at 1, 3, 8, 24, 48, 72, 96, 120, 144, and 168 h after administration of temsirolimus on study days 1 and 15. Samples were collected in evacuated tubes containing ethylenediaminetetraacetic acid (EDTA) and gently mixed, then stored upright at −70°C until shipment.
Analytes and internal standard were extracted from a 1-ml sample of EDTA-treated whole blood by liquid–liquid extraction with 1-chlorobutane and separated with a YMC PDS AQ HPLC column (Waters, Milford, MA, USA). Analytes were detected by tandem mass spectrometry using atmospheric pressure chemical ionisation. The concentration of analytes was determined with calibration standards using linear least squares regression.
Pharmacokinetic parameters for temsirolimus were analysed for each subject for each study period using non-compartmental methods ([Jusko, 1992]). Scheduled times were used for all calculations. The Cmax and the time to reach Cmax (Tmax) were determined visually from the concentration–time curves. The terminal elimination rate constant, λz, was estimated by log-linear regression of the terminal portion of the whole blood concentration–time curves. The terminal elimination half-life (T1/2) was calculated as 0.693/λz. The area under the concentration–time curve (AUCT) was calculated using the trapezoidal rule for the ascending portion of the curve, and the log-trapezoidal rule for the descending portion of the curve. […] Clearance (CL) is the volume of plasma cleared of the drug per unit time (dose/AUC). Apparent clearance was corrected for the fraction of the dose that was metabolised (CL/fm). The apparent volume of distribution during the terminal phase (Vz) was calculated by (CL/fm)/λz. The calculation of the steady-state volume of distribution (Vdss) incorporated dissociation and association rates of protein and tissue binding. Vdss was defined as (dose/AUC)MRTu, where MRTu is the mean residence time of the unbound drug in the plasma ([Berezhkovskiy, 2004]).
(§2) The geometric mean relative bioavailability of Cmax, AUC, and AUCT and the 90% confidence limits were calculated using ANOVA to determine the magnitude of the effect of ketoconazole. Vital signs, ECG intervals, and laboratory parameters were screened for prespecified, potentially clinically important criteria.

[2] = parameters: method as in Atkins et al, 2004; conditions: ref Atkins et al, 2004, cited from earlier work
[3] = parameters: method as in Boni et al, 2007; conditions: healthy adults; with rifampin; ref Boni et al, 2007; cited from earlier work
[4] = parameters: method as in Boni et al, 2007; conditions: cancer patients; ref Boni et al, 2007; cited from earlier work
[5] = parameters: method as in Zimmerman, 2004; conditions: oral sirolimus; ref Zimmerman, 2004; cited from earlier work
[6] = parameters: method as in Punt et al, 2003; conditions: stored at −70°C; ref Punt et al, 2003; cited from earlier work
CYP3A4 [7] = test system: CYP3A4; parameters: method as in Cai et al, 2007; conditions: in vitro liver microsome systems, ref Cai et al, 2007, cited from earlier work
CYP3A4 [8] = conditions: read-out: Ki for inhibition of the metabolism of sirolimus; reference not given; cited from earlier work
[9] = Safety: treatment-emergent adverse events in healthy subjects receiving temsirolimus alone or with ketoconazole; type: in vivo, human
Description: as §1, §2

[10] = 5 mg i.v. temsirolimus + 400 mg oral ketoconazole vs temsirolimus alone
[11] = 5 mg i.v. temsirolimus + ketoconazole vs temsirolimus alone
[12] = intravenous, single 5 mg i.v. temsirolimus + ketoconazole 400 mg oral, healthy subjects, mean (CV)
[13] = intravenous, single 5 mg i.v. temsirolimus + ketoconazole 400 mg oral, mean (CV)
[14] = iv, single 5 mg i.v. temsirolimus alone, healthy subjects, mean (CV)
[15] = iv, single 5 mg i.v. temsirolimus alone, mean (CV)
[16] = iv, 5 mg, 5 mg i.v. temsirolimus, irrespective of treatment (with or without ketoconazole), read-out: Time to maximal concentration
[17] = iv, 5 mg, single 5 mg i.v. temsirolimus alone, mean (CV)
[18] = iv, 5 mg, single 5 mg i.v. temsirolimus alone, mean (CV), read-out: Tmax
[19] = single 5 mg i.v. temsirolimus + ketoconazole 400 mg oral, mean (CV)
[20] = single 5 mg i.v. temsirolimus alone, mean (CV)
[21] = with ketoconazole relative to single 5-mg i.v. temsirolimus alone, 90% CI in brackets
[22] = single 25-mg dose of temsirolimus, patients with RCC, CV=17%

For `CO[C@H]1C[C@@H]2CC[C@@H](C)[C@@](O)(O2)C(=O)C(=O)N2CCCC[C@H]2C(=O)O[C@H]([C@H](C)C[C@@H]2CC[C@@H](O)[C@H](OC)C2)CC(=O)[C@H](C)/C=C(\C)[C@@H](O)[C@@H](OC)C(=O)[C@H](C)C[C@H](C)/C=C/C=C/C=C/1C` [Sirolimus], the “Increase in mean AUC with ketoconazole compared with temsirolimus alone” value [1, 10] was 3.1 fold and 3.2 fold, the “Increase in mean Cmax with ketoconazole compared with temsirolimus alone” value [1, 10] was 2.2 fold and the “Decrease in mean apparent metabolic clearance (CL/fm) with ketoconazole” value [1, 11] was 3.2 fold. For the same compound, the “Intersubject variability, CV for Cmax and AUC” value [1] was less than 33%, the Cmax [1, 12] was 29 ng/mL and the AUC [1, 13] was 3890 ng·h/mL. It also gave an AUC(0-t) [1, 13] of 2410 ng·h/mL, a Cmax [1, 14] of 13.3 ng/mL and an AUC [1, 15] of 1200 ng·h/mL. The AUC(0-t) [1, 15] was 918 ng·h/mL, the Vd ([1]; intravenous, metabolite sirolimus, single 5 mg i.v. temsirolimus + ketoconazole 400 mg oral, mean (CV), read-out: Vss/fm) was 227 L and the Vd ([1]; intravenous, metabolite sirolimus, single 5 mg i.v. temsirolimus + ketoconazole 400 mg oral, mean (CV), read-out: Vz/fm) was 220 L. The half-life [1, 13] was 113 h, the Tmax [1, 16] was 3 h and the Vd ([1]; iv, 5 mg, metabolite sirolimus, single 5 mg i.v. temsirolimus alone, mean (CV), read-out: Vss/fm) was 494 L. For the same compound, the Vd ([1]; iv, 5 mg, metabolite sirolimus, single 5 mg i.v. temsirolimus alone, mean (CV), read-out: Vz/fm) was 480 L, the half-life [1, 17] was 75 h and the Tmax [1, 18] was 3.3 h. The “Reduction in apparent clearance with ketoconazole” value ([1]; metabolite sirolimus, 5 mg i.v. temsirolimus + ketoconazole vs temsirolimus alone) was 69%, the “Carryover from treatment period 1 to 2, contribution to mean total AUC” value ([1]; period 2, mean) was 1.9% and the “Carryover from treatment period 1 to 2, contribution to total AUC, range” value ([1]; period 2, range) was 1.1–3.7%. The T1/2 [1, 19] was 112.8 (18.1%) h, the T1/2 [1, 20] was 74.8 (10.8%) h and the “Cmax as % of temsirolimus Cmax values” ([2]; after temsirolimus) was 10–20%. For the same compound, the “Reduction of AUC by rifampin” value [3] was 56%, the “Reduction in AUC with concomitant enzyme-inducing anticonvulsant agents” value [4] was 45% and the “Reduction in Cmax with concomitant enzyme-inducing anticonvulsant agents” value [4] was 67%. The “Increase in blood levels with ketoconazole” value [5] was roughly 10 fold and the “Stability in whole blood” value [6] was “stable”.

In the case of `CO[C@H]1C[C@@H]2CC[C@@H](C)[C@@](O)(O2)C(=O)C(=O)N2CCCC[C@H]2C(=O)O[C@H]([C@H](C)C[C@@H]2CC[C@@H](OC(=O)C(C)(CO)CO)[C@H](OC)C2)CC(=O)[C@H](C)/C=C(\C)[C@@H](O)[C@@H](OC)C(=O)[C@H](C)C[C@H](C)/C=C/C=C/C=C/1C` [Temsirolimus], the “Decrease in mean clearance with ketoconazole” value [1, 11] is reported as “approximately 10%”, the “Effect of ketoconazole coadministration on Cmax or AUC” value ([1]; 400 mg oral ketoconazole with 5 mg i.v. temsirolimus, healthy subjects) is reported as “no significant effect; also recorded: No substantial differences” and the “Intersubject variability, CV for Cmax and AUC” value [1] is reported as less than 16%. The Cmax [1, 12] was 263 ng/mL, the AUC [1, 13] was 992 ng·h/mL and the AUC(0-t) [1, 13] was 969 ng·h/mL. For the same compound, the Cmax [1, 14] was 278 ng/mL, the AUC [1, 15] was 886 ng·h/mL and the AUC(0-t) [1, 15] was 873 ng·h/mL. It also gave a clearance [1, 13] of 85.7 mL/min, a half-life [1, 13] of 23.7 h and a Tmax ([1]; intravenous, single 5 mg i.v. temsirolimus + ketoconazole 400 mg oral, mean (CV), read-out: Tmax) of 0.5 h. The Vd ([1]; intravenous, single 5 mg i.v. temsirolimus + ketoconazole 400 mg oral, mean (CV), read-out: Vss) was 92 L, the Vd ([1]; intravenous, single 5 mg i.v. temsirolimus + ketoconazole 400 mg oral, mean (CV), read-out: Vz) was 174 L and the Tmax [1, 16] was 0.5 h. For the same compound, the clearance [1, 17] was 95.3 mL/min, the half-life [1, 17] was 22.3 h and the Tmax [1, 18] was 0.5 h. For the same compound, the Vd ([1]; iv, 5 mg, single 5 mg i.v. temsirolimus alone, mean (CV), read-out: Vss) was 87 L, the Vd ([1]; iv, 5 mg, single 5 mg i.v. temsirolimus alone, mean (CV), read-out: Vz) was 182 L and the CL [1, 19] was 5.1 (13.8%) l h^−1. For the same compound, the Vss [1, 19] was 91.5 (17.5%) l, the CL [1, 20] was 5.7 (11.0%) l h^−1 and the Vss [1, 20] was 86.8 (14.6%) l. For the same compound, the “Least squares geometric mean ratio for AUC” value [1, 21] was 110%, the “Least squares geometric mean ratio for AUCT” value [1, 21] was 109% and the “Least squares geometric mean ratio for Cmax” value [1, 21] was 94%. The “90% CIs for the least squares geometric mean ratios of Cmax, AUCT, and AUC” value ([1]; with ketoconazole vs temsirolimus alone) was 80–125%, the Tolerability ([9]; human, in vivo) was “well tolerated” and the “Herpes simplex (skin and appendages)” value ([9]; temsirolimus 5 mg + ketoconazole 400 mg, n=14) was 0 n (%). The “Herpes simplex (skin and appendages)” value ([9]; temsirolimus 5 mg alone, n=17) was 1 (5.9) n (%), the “Deaths or serious adverse events” value ([9]; temsirolimus alone and with ketoconazole) was “No deaths or serious adverse events” and the “Mean area under the curve (AUC)” value [2, 22] was 1580 ng·h/mL. For the same compound, the “Mean maximum concentration (Cmax) in whole blood” value [2, 22] was 595 ng/mL, the “Effect of rifampin on AUC” value [3] was “no effect” and the “Reduction in Cmax with concomitant enzyme-inducing anticonvulsant agents” value [4] was 36%. The “Stability in whole blood” value [6] was “stable”.
